Source: article PMC6944649, “Population Pharmacokinetics, Efficacy Exposure-response Analysis, and Model-based Meta-analysis of Fenebrutinib in Subjects with Rheumatoid Arthritis” (Pharmaceutical Research, 2020)
Blank lines part the entries; values can stand above or below the molecule they belong to.

How the values were obtained:
[1] = Population pharmacokinetic (popPK) analysis of fenebrutinib plasma concentrations (Phase 1 GA29347, GP29832 and Phase 2 GA29350); assay type: in vivo, human
Protocol: Fenebrutinib plasma concentrations were determined by high performance liquid chromatography with tandem mass spectrometry (MS/MS) detection (Covance Laboratories Inc., USA). Calibration plots were linear throughout the range of 0.5 to 500 ng/mL (lower and upper limits of quantification, respectively) for fenebrutinib in human plasma. Relative standard deviation of precision was <7.8%, and the accuracy of the method was between 91.3% and 102.7%.
Fenebrutinib plasma concentrations from subjects providing all available PK data after tablet administration in the clinical studies were integrated into the popPK analysis. The model was characterized initially in healthy subjects ([22]) from the Phase 1 multiple ascending dose (MAD) (GA29347) and a Phase 1 relative bioavailability/food effect/drug-drug interaction (GP29832, ClinicalTrials.gov Identifier: NCT02699710) studies, and later updated to incorporate the Phase 2 data from the three fenebrutinib-treated arms in patients with RA.
The popPK model was developed by introducing features in the order of increasing complexity, beginning with very simple models (e.g. one-compartment with first-order elimination), and continuing until further improvement in model fit was not supported by the data.
Covariate analysis first investigated the effects of pre-defined demographic, laboratory, prognostic, and treatment covariates on all the model parameters by using univariate screening. If >10% of a covariate was missing, the covariate was not included in the popPK analysis. Otherwise, the value of missing covariate observations was imputed as the median of the remaining values from an appropriate sub-population. For example, the missing baseline body weight value was imputed as the gender-adjusted median body weight of the remaining subjects. For categorical covariates, the most frequently occurring value was imputed for subjects with missing values in each trial. Concomitant proton pump inhibitor (PPI) and food were categorized as time-varying covariates, whereas the other categorical covariates were considered as baseline (non-time-varying) covariates. Next, covariates selected from the univariate screening (p value <0.05) were included in the evaluation of a full model followed by backwards elimination (p value <0.01). Effects of continuous covariates were incorporated into the model using the power function and normalized using the median of the covariate. Effects of categorical covariates were parameterized as proportional effects in the model, in which the fractional change on a model parameter was estimated, and the typical category constituted the largest proportion in the analysis population.
The final model was determined on the basis of objective function value, physiological plausibility of model parameter estimates, numerical convergence success, parameter estimate precision (relative standard errors <50%), and visual predictive check (VPC) plots. Goodness-of-fit plots were produced to verify the general agreement of fitted values with observed data. Prediction-corrected visual predictive check (pcVPC) was performed by normalizing the observed and simulated dependent variable based on the typical population prediction for the median independent variable in the bin ([26]). The pcVPC was stratified to evaluate the covariate effects of interest, whenever applicable. […]
Model development was carried out using first order conditional estimation with interaction (FOCE-I) as implemented in NONMEM (version 7.3, ICON Development Solutions, Ellicott City, MD). Post-processing of NONMEM analysis results was carried out in R (version 3.2.2, R Development Core Team, 2008).

[2] = Phase 1 relative bioavailability/food effect/drug-drug interaction study (GP29832), non-compartmental analysis; assay type: in vivo, human; conditions: healthy volunteers
[3] = test system: patients with rheumatoid arthritis; assay: Exposure-response (E-R) analysis of longitudinal ACR20, ACR50, ACR70 in Phase 2 trial GA29350; assay type: in vivo, human
Text: (§1) GA29350 (ANDES, ClinicalTrials.gov Identifier: NCT02833350) was a multicenter, Phase 2, randomized, double-blind, placebo-controlled, parallel-group, dose-ranging trial to evaluate the efficacy and safety of fenebrutinib in patients with moderate to severe active RA and an inadequate response to previous MTX therapy (cohort 1) or anti-TNF therapy (cohort 2) ([24],[25]).
(§2) In cohort 1, 480 patients were enrolled, and were randomly assigned to 1 of 5 parallel treatment arms (3 fenebrutinib arms, 1 placebo arm, and 1 adalimumab arm). In the fenebrutinib and placebo arms, subjects received 50 mg QD, 150 mg QD, or 200 mg BID fenebrutinib tablets or placebo tablets, together with subcutaneous (SC) placebo injections every other week for 12 weeks (n = 40 in the 50 mg arm, and n = 109 to 111 in each of the other 4 arms). In the active comparator arm, patients received adalimumab 40 mg SC every other week and placebo tablets for 12 weeks. In cohort 2 (n = 98 enrolled), patients received 200 mg fenebrutinib BID or placebo tablets for 12 weeks.
(§3) Treatment responses in RA clinical trials are commonly evaluated by the American College of Rheumatology improvement criteria for 20, 50, and 70% threshold values (ACR20, ACR50, and ACR70, respectively), which is a binary response variable, and by the Disease Activity Score with 28-joint counts (DAS28), which is a continuous variable ([27],[28]). Both types of endpoints can be measured repeatedly during the course of the treatment period. The proportion of patients achieving ACR50 responses and analysis of longitudinal DAS28 (CRP) (DAS based on 28 joints and C-reactive protein value) were evaluated as the primary, key secondary, and secondary endpoints in the Phase 2 trial, and therefore, were of primary interest among clinical efficacy endpoints modeled for fenebrutinib. The E-R analyses aimed to establish the relationship between patient-specific fenebrutinib exposure with clinical efficacy endpoints of interest. […]

[4] = test system: patients with rheumatoid arthritis; assay: Exposure-response (E-R) analysis of longitudinal DAS28 (CRP) in Phase 2 trial GA29350; assay type: in vivo, human
Text: as §1, §2, §3

[5] = test system: patients with rheumatoid arthritis; assay: Model-based meta-analysis (MBMA) of ACR20, ACR50, ACR70; assay type: in vivo, human
Protocol: An efficacy and safety meta-analysis database was constructed in July 2017 using publicly available data of randomized trials in RA, based on the guidelines in the Cochrane Handbook for Systematic reviews. For this, a systematic review of publicly available data from the PubMed, Cochrane Library, and Embase databases was conducted using the search term “rheumatoid arthritis”. Furthermore, an existing database that contained data published in or before 2012 ([30]) was augmented using an additional, systematic, and quality-controlled procedure to search for relevant published studies, extract their data, and add to the existing database yielding pertinent data published through 2017.
The summary data of the database were explored systematically to determine the amount of data available for each treatment, efficacy and safety endpoint across trials, distribution of mean patient characteristics, and to graphically view the time course of longitudinal endpoints, placebo effect, active treatment effect from each of the comparator treatments, and the effects of patient and trial characteristics. Response rates of ACR20, ACR50, and ACR70 in terms of the proportion of patients achieving specified thresholds were the most prevalent efficacy endpoints in the database, and therefore, were chosen as the variables for model development using MBMA. Because of the relatively few adverse events observed in the fenebrutinib Phase 2 trial in RA ([24]), MBMA for safety events, such as serious infections, was not conducted.
The model simultaneously fit ACR20, ACR50, and ACR70 longitudinal data, and a non-linear mixed effects (NLME) estimation method was carried out using R. This hierarchical regression model used maximum likelihood estimation, and multiple levels of heterogeneity were described as mixed effect variability terms accommodating between-trial and within-trial variability. […]
The adequacy of model fits across trials was evaluated by visually inspecting time course plots of observed distributions vs. predicted values. […]

[6] = set-up: method as in PMID 29484638; conditions: Phase 1, cited from earlier work
[7] = test system: BTK; set-up: method as in PMID 29484638; conditions: healthy volunteers, Phase 1; cited from earlier work

apparent clearance (CL/F) decrease with concomitant administration of PPI ([1]; concomitant PPI): 33.7%
CL/F: Apparent systemic clearance ([1]; final popPK model estimate θ1, oral, typical RA patient): 19.5 L/h
NTR: Number of transit compartments ([1]; final popPK model estimate θ7, transit compartment absorption model): 14.9
MTT: Mean transit time ([1]; final popPK model estimate θ8): 0.849 h
Food effect on MTT ([1]; final popPK model estimate θ11, covariate effect): 1.43
PPI effect on MTT ([1]; final popPK model estimate θ12, concomitant proton pump inhibitor): 0.835
PPI and food effect on MTT ([1]; final popPK model estimate θ13): 2.26
PPI effect on F1 ([1]; final popPK model estimate θ14, F1 relative extent of absorption): 0.657
PPI and food effect on F1 ([1]; final popPK model estimate θ15): 0.693
Food effect on NTR ([1]; final popPK model estimate θ16): 0.864
Tablet effect on NTR ([1]; final popPK model estimate θ17, formulation effect): 0.049
Vd/F ([1]; human, plasma, oral, final popPK model estimate θ2, read-out: V1/F: Apparent central volume of distribution): 381 L
ω^2CL/F ([1]; inter-individual variability ω1.1): 0.0732
ω^2V1/F ([1]; inter-individual variability ω2.2): 0.100
ω^2MTT ([1]; inter-individual variability ω8.8): 0.0861
ω^2F1 ([1]; inter-individual variability ω9.9): 0.131
ω^2IOV on F1 ([1]; inter-occasion variability ω10.1): 0.299
higher apparent clearance in healthy subjects than patients with RA ([1]; two Phase 1 studies vs Phase 2 trial): 52%
PPI effect on Cmax [2]: PPI decreases the Cmax
Molecule: C[C@H]1CN(C2COC2)CCN1c1ccc(Nc2cc(-c3ccnc(N4CCn5c(cc6c5CC(C)(C)C6)C4=O)c3CO)cn(C)c2=O)nc1 [fenebrutinib]
food effect on concentration-time profile and Tmax [2]: food blunts the concentration-time profile and delays the Tmax
Max drug effect over time - Eastern Europe ([3]; ACR20/50/70 E-R model θ9, logit scale): 1.39
Max drug effect over time - Latin America ([3]; ACR20/50/70 E-R model θ14): 2.06
efficacy versus exposure (ACR responses and DAS28 (CRP)) ([3]; graphical exploration and model-based simulation, cohort 1 MTX-IR patients, exposure range of Phase 2 study): plateau of efficacy was achieved
Time of 50% drug effect ([4]; DAS28 (CRP) E-R model θ4): 47 days
Maximum drug effect over time (DAS28) ([4]; DAS28 (CRP) E-R model θ6): -0.964
ω2Max drug effect ([4]; DAS28 (CRP) E-R model ω2.2, inter-individual variability): 0.283
efficacy in terms of ACR20, ACR50, and ACR70 compared to the registrational doses of adalimumab and tofacitinib ([5]; MBMA simulation, 200 mg BID, TNF-IR patients, 12 weeks after initiation of treatment): comparable efficacy
ED50, dose at which 50% of efficacy ([5]; calculated from E-R EC50 and fixed in MBMA model): 525 mg/week
accumulation ([6]; following twice daily dosing): modest accumulation
increase of plasma exposures with dose ([6]; healthy subjects): approximately dose-proportionally
steady-state half-life ([6]; healthy subjects): 4.2 to 9.9 h
time of peak plasma concentrations after oral administration ([6]; healthy subjects): 1 to 3 h
inhibition of BTK [7]: dose- and concentration-dependent inhibition

Molecule: adalimumab [reference compound]
ACR20, ACR50, and ACR70 response rates in arm of the fenebrutinib Phase 2 trial versus historical data ([5]; adalimumab 40 mg SC every other week arm, MBMA): consistent with historical data
